The record followed here is ChEMBL document CHEMBL1201862, “PubChem BioAssay data set” (2004).

Some test systems named below: SW-620; SK-OV-3; Malme-3M; MOLT-4; A498; 786-0; SN12C; UACC-257; IGROV-1; HCT-15; TK-10; OVCAR-8; UACC-62; HOP-62; SF-295; HT-29; OVCAR-5; NCI-H23.
Common to all, as to experiment: NCI tumour cell line growth inhibition, 48 h

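Assay format: 96-well plates, 48-hour exposure. The concentration for 50% growth inhibition is given as GI50.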 The source made the active and inactive calls. No stated cut-off is given here; in the data, active = GI50 up to about 1.1 µM and inactive = higher. A value given as a limit tells only on which side of the number the result lay.

Take `COC(=O)c1c(OC(=O)c2ccccc2)noc1CC(=O)OC1C=CCCC1` (stereo not drawn): the GI50 was > 100 µM (inactive) in the assay on SW-620; > 100 µM (inactive) in the assay on SK-OV-3; > 100 µM (inactive) with Malme-3M; 25.5 µM (inactive) in the assay on MOLT-4; 68.5 µM (inactive) with A498; > 100 µM (inactive) with 786-0. In addition, the GI50 in the assay with SN12C is > 100 µM (inactive); in the assay with UACC-257, 95.5 µM (inactive); in the assay with IGROV-1, > 100 µM (inactive); in the assay with HCT-15, 86.1 µM; in the assay on TK-10, > 100 µM (inactive); in the assay on OVCAR-8, > 100 µM (inactive). Also, the results for the GI50 in the assay on UACC-62 and with HOP-62 were 28.6 µM (inactive) and > 100 µM (inactive), respectively.
Turning to `CC1=C(c2cc(C(=O)Nc3cc(C)ccc3C)nc(N)n2)Sc2ccccc2N1`, the GI50 in the assay on SW-620, with SK-OV-3, in the assay on SF-295, with Malme-3M, with HT-29 and with MOLT-4 was > 100 µM (inactive) in each case. Besides, the GI50 in the assay on OVCAR-5, with A498, in the assay with 786-0, in the assay with SN12C, in the assay with UACC-257 and in the assay on IGROV-1 was > 100 µM (inactive) in each case. The GI50 in the assay with NCI-H23 is > 100 µM (inactive); in the assay on HCT-15, > 100 µM; in the assay on TK-10 it was > 100 µM (inactive); in the assay on OVCAR-8 it was > 100 µM (inactive); with UACC-62 it was > 100 µM (inactive); with HOP-62 it was > 100 µM (inactive).
Consider `COC1=CC(=Nc2c(Cl)cc(Cl)cc2OC(=O)c2ccc([N+](=O)[O-])cc2)C=C(OC)C1=O`, for which the GI50 in the assay on SW-620 is 13.5 µM (inactive); in the assay on SK-OV-3, 16.5 µM (inactive); in the assay with SF-295 it was 11.5 µM (inactive); with Malme-3M it was 15.5 µM (inactive); in the assay with HT-29, 18.4 µM (inactive); with MOLT-4, 2.87 µM (inactive). Also, the GI50 with OVCAR-5 is 19.5 µM (inactive); with 786-0, 14.8 µM (inactive); in the assay with SN12C, 11.8 µM (inactive); in the assay with UACC-257, 11.7 µM (inactive); with IGROV-1 it was 14.5 µM (inactive); in the assay on NCI-H23 it was 9.12 µM (inactive). The GI50 in the assay with HCT-15 is 5.97 µM; in the assay on TK-10, 22.8 µM (inactive); in the assay with OVCAR-8, 7.35 µM (inactive); in the assay on UACC-62 it was 4.26 µM (inactive); with HOP-62 it was 21.5 µM (inactive).
For the molecule `Cc1ccc(-c2c(C#N)c(-c3ccc(C)cc3)n(NS(=O)(=O)c3ccccc3)c(=O)c2C#N)cc1`, the GI50 is 42.4 µM (inactive) in the assay with SW-620; 53.8 µM (inactive) in the assay on SK-OV-3; 32.5 µM (inactive) with SF-295; 86.5 µM (inactive) with Malme-3M; 41.7 µM (inactive) in the assay on HT-29; 25.2 µM (inactive) with MOLT-4. Further, the GI50 is > 100 µM (inactive) in the assay on OVCAR-5; 51.2 µM (inactive) in the assay with A498; 54.1 µM (inactive) in the assay with 786-0; 62.2 µM (inactive) in the assay on SN12C; 86.1 µM (inactive) with UACC-257; 44.5 µM (inactive) in the assay with IGROV-1. The GI50 in the assay with HCT-15 was 39.4 µM; with TK-10, 76.2 µM (inactive); with OVCAR-8, 69.2 µM (inactive); with UACC-62, 34.1 µM (inactive); with HOP-62, 49.2 µM (inactive).
In the case of `C/N=C1\CC2c3cc(OC)c(OC)cc3CCN2C2=C1C(=O)CC(C)(C)C2` (stereo not drawn), the GI50 in the assay with SW-620, with SF-295, with Malme-3M, in the assay with HT-29, in the assay with MOLT-4 and with OVCAR-5 was > 100 µM (inactive) each time. Also, the GI50 is > 100 µM (inactive) in the assay on A498; > 100 µM (inactive) in the assay with 786-0; > 100 µM (inactive) in the assay on SN12C; > 100 µM (inactive) in the assay on UACC-257; > 100 µM (inactive) in the assay with NCI-H23; > 10 µM in the assay with HCT-15. Also, the GI50 in the assay on TK-10 and with OVCAR-8 was > 100 µM (inactive) throughout.
For `CCOc1ccccc1/N=C(/NC(=O)CC)SC`, the GI50 is > 10 µM (inactive) in the assay on SW-620; > 10 µM (inactive) in the assay with SK-OV-3; > 10 µM (inactive) with SF-295; 67.1 µM (inactive) in the assay with Malme-3M; > 10 µM (inactive) with HT-29; 68.4 µM (inactive) in the assay on MOLT-4. Also, the GI50 in the assay with OVCAR-5 is > 10 µM (inactive); in the assay with A498, > 10 µM (inactive); in the assay on 786-0, > 10 µM (inactive); in the assay with SN12C, 65.8 µM (inactive); in the assay with UACC-257, > 10 µM (inactive); in the assay with IGROV-1 it was > 10 µM (inactive). Also, the GI50 is 70.5 µM (inactive) in the assay on NCI-H23; 52.5 µM with HCT-15; > 10 µM (inactive) in the assay with TK-10; 57 µM (inactive) in the assay with OVCAR-8; > 10 µM (inactive) in the assay on UACC-62; > 10 µM (inactive) with HOP-62.
`O=c1/c(=C/c2cccc3ccccc23)sc2nc3ccccc3n12`: the GI50 in the assay on SW-620, with SF-295, in the assay on Malme-3M, with HT-29, in the assay with OVCAR-5 and with A498 was > 100 µM (inactive) throughout. The GI50 in the assay on 786-0 was > 100 µM (inactive); in the assay on SN12C it was > 100 µM (inactive); in the assay on UACC-257, > 100 µM (inactive); in the assay on IGROV-1, > 100 µM (inactive); with NCI-H23, > 100 µM (inactive); in the assay with HCT-15 it was > 100 µM. For the same molecule, the GI50 with TK-10, in the assay on OVCAR-8, with UACC-62 and with HOP-62 was > 100 µM (inactive) each time.
Consider `COC(=O)Nc1nc2cc(Br)ccc2[nH]1`, for which the GI50 was 37 µM (inactive) in the assay on SW-620; 27.5 µM (inactive) with SK-OV-3; 30.7 µM (inactive) in the assay on SF-295; 37.1 µM (inactive) in the assay on Malme-3M; 16 µM (inactive) with HT-29; 53.8 µM (inactive) in the assay on MOLT-4. The GI50 with OVCAR-5 is 60.1 µM (inactive); in the assay with A498, 67.8 µM (inactive); with 786-0 it was 53.2 µM (inactive); in the assay on SN12C it was > 100 µM (inactive); in the assay with UACC-257 it was > 100 µM (inactive); in the assay on IGROV-1, 35.9 µM (inactive). The GI50 in the assay on NCI-H23 is 32.7 µM (inactive); in the assay with HCT-15, 8.34 µM; in the assay on TK-10, 58.7 µM (inactive); in the assay with OVCAR-8, 32.6 µM (inactive); with UACC-62, 74.5 µM (inactive); in the assay on HOP-62 it was 57.3 µM (inactive).
For `Cc1ccc([N+](=O)[O-])cc1NC(=O)/C(=N/NC(=S)NN)C1SC(=S)NC1=O` (stereo not drawn), the GI50 in the assay on SW-620 is > 100 µM (inactive); in the assay with SK-OV-3 it was > 100 µM (inactive); in the assay with SF-295, > 100 µM (inactive); in the assay on Malme-3M, > 100 µM (inactive); with HT-29 it was > 100 µM (inactive); in the assay on MOLT-4 it was 78.9 µM (inactive). The GI50 with OVCAR-5, in the assay on A498, in the assay with 786-0, in the assay with SN12C, in the assay with UACC-257 and with IGROV-1 was > 100 µM (inactive) in each case. The GI50 in the assay with NCI-H23 was > 100 µM (inactive); in the assay on HCT-15, > 100 µM; with TK-10 it was > 100 µM (inactive); in the assay with OVCAR-8, > 100 µM (inactive); with UACC-62 it was > 100 µM (inactive); in the assay on HOP-62 it was > 100 µM (inactive).
For `O=C(CC1(O)C(=O)Nc2ccccc21)c1ccc(Cl)c(Cl)c1` (stereo not drawn), the GI50 in the assay with SW-620, with SK-OV-3, in the assay with SF-295, with HT-29, with MOLT-4 and in the assay with OVCAR-5 was > 100 µM (inactive) each time. Besides, the GI50 in the assay with A498 is > 100 µM (inactive); in the assay with 786-0, > 100 µM (inactive); in the assay on SN12C, > 100 µM (inactive); in the assay on IGROV-1, > 100 µM (inactive); in the assay with NCI-H23 it was > 100 µM (inactive); with HCT-15, > 100 µM. Besides, the GI50 with UACC-62 was > 100 µM (inactive).
Take `NN/C(Cc1ccccc1)=N\NO`: the GI50 in the assay with SW-620, with SF-295, in the assay with Malme-3M, in the assay with HT-29, in the assay on MOLT-4 and in the assay on OVCAR-5 was > 100 µM (inactive) throughout. The GI50 in the assay on A498 was > 100 µM (inactive); in the assay with 786-0, > 100 µM (inactive); with UACC-257, > 100 µM (inactive); in the assay on IGROV-1 it was > 100 µM (inactive); in the assay with NCI-H23 it was 57.4 µM (inactive); in the assay on HCT-15, 26.8 µM. Moreover, the results for the GI50 with TK-10 and in the assay with UACC-62 were > 100 µM (inactive) and 56.2 µM (inactive), respectively.
As for `CC[C@@H]1C[C@H]2CC3c4[nH]c5ccc(O)cc5c4CCN(C2)C31`, the GI50 with SW-620, in the assay with SF-295, in the assay with Malme-3M, with HT-29, in the assay with MOLT-4 and in the assay with OVCAR-5 was > 100 µM (inactive) throughout. For the same molecule, the GI50 with 786-0 was > 100 µM (inactive); in the assay on SN12C, > 100 µM (inactive); with UACC-257, > 100 µM (inactive); in the assay with IGROV-1 it was > 100 µM (inactive); with NCI-H23 it was > 100 µM (inactive); with HCT-15, > 100 µM. Further, the GI50 in the assay on TK-10, in the assay with OVCAR-8, in the assay on UACC-62 and in the assay with HOP-62 was > 100 µM (inactive) throughout.
